These results are taken from US10294212B2 (CURADEV PHARMA PRIVATE LTD., priority 2013, dated 2019).

The subject of one experiment is CT-26 tumor cells. The experiment in a line: Antitumor activity in syngeneic CT26/Balb/C tumor model. The conditions noted are these: for reduction of tumor growth: vs control animals. It is filed as in vivo, Balb/c mice. How it is done:
Tumor volume reduction by the test compounds was evaluated in a syngeneic CT26/Balb/C tumor model as described below. Balb/c mice were purchased from Vivo Bio Tech, Hyderabad, India, and housed in sterile conditions using an individually ventilated caging system manufactured by Citizen Industries Limited, Ahmedabad, India. Mice were quarantined for at least 7 days before experimentation.
Mouse colorectal tumor forming cells, CT-26 cells (ATCC, USA), were cultured in DMEM and 10% FBS medium supplemented with lx non-essential amino acid (HiMedia) in an incubator maintained at 37QC with 95% humidity and 5% CO2. One million (1×10^6) live syngeneic CT-26 cells suspended in 0.2 ml of […] were injected subcutaneously in the right flank of each Balb/c mouse (age 6-8 weeks, weight: about 18-20 g) on day 1 under anesthesia. Eight to ten mice were used per experimental group. Subcutaneous cells formed localized tumors. Animals were visually inspected twice a day. Tumor measurements were initiated 7 days post injection using Vernier calipers. Tumor sizes at day 7 ranged typically from 80-150 mm^3. Tumor dimensions were subsequently measured every 3 to 4 days and tumor volume was determined. Assuming tumors to be ellipsoid, tumor volume was calculated using the formula: V=(D×d×d)/2
Where D is longest diameter in mm, and d is shortest diameter in mm.
When the average tumor volume in the mice reached 100-120 mm^3, tumor bearing mice were randomized for treatment with either test compound or vehicle alone. Test compounds were formulated generally in normal saline comprising Polyethylene Glycol (PEG400), Propylene glycol (PG) and Dimethyl Acetamide (DACM) at pH 4.5-5.0 and dosed orally at ranges 40-75 mg/kg (dose volume—5 mL/kg) twice a day. Solutions of the compounds were prepared immediately before dosing the animals. In general, tumor volume was measured at various times post-dosing from day 1 to day 34.
A non-limiting example is provided. Tumor bearing mice were dosed orally twice a day at 40 mg/kg body weight with either vehicle control or test compound 2 formulated in 30% Polyethylene Glycol (PEG-400), 20% Propylene glycol (PG) in normal saline. Tumors were measured and tumor volumes were determined at 1, 4, 6, 9, 11, and 14 days after the first dose as described above. Animals were sacrificed on day 14. Tumor and blood samples were harvested for further analysis. Just prior to animal sacrifice, blood was drawn retro-orbitally into a tube containing 0.2% EDTA for plasma collection. The harvested tumors were weighed and snap frozen in liquid nitrogen immediately. Plasma KYN concentrations are measured for pharmacokinetic analysis using LC/MS/MS using an API4000 mass spectrometer (Applied Biosystems) coupled to a Shimadzu Prominence LC system fitted with a C18 column.

Experiment [1] addresses Human TDO (hTDO)-transfected CHO-K1 cells (Homo sapiens (Human), UniProt P48775). The experiment in a line: CHO-K1 cell based TDO assay. The settings on record: hTDO cellular assay. Put shortly:
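Stably hTDO-expressing CHO-K1 cells were exposed to compounds (typically 31 μM to 10 nM) in HBSS with 80 μM L-tryptophan for 2 h. TCA-treated supernatant was heated at 65° C for 15 min to convert N-formylkynurenine, then kynurenine was quantified by LC/MS/MS. IC50 came from percent inhibition versus DMSO control.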

Another experiment has as its target IDO1 in HeLa cells (Homo sapiens (Human), UniProt P14902). The experiment in a line: HeLa cell based IDO1 assay (IFNγ-induced, KYN in supernatant). Put shortly:
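HeLa cells were induced overnight with IFNγ (50 ng/mL), washed, then exposed to compound (typically 10 μM–1 nM) in HBSS with 80 μM L-tryptophan. Supernatant was TCA-treated at 65 °C for 15 min to convert N-formylkynurenine, and KYN was measured by HPLC-UV at 360 nm. IC50 came from nonlinear regression against a 1% DMSO control.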

Sequence of IDO1 in HeLa cells (P14902 whole entry): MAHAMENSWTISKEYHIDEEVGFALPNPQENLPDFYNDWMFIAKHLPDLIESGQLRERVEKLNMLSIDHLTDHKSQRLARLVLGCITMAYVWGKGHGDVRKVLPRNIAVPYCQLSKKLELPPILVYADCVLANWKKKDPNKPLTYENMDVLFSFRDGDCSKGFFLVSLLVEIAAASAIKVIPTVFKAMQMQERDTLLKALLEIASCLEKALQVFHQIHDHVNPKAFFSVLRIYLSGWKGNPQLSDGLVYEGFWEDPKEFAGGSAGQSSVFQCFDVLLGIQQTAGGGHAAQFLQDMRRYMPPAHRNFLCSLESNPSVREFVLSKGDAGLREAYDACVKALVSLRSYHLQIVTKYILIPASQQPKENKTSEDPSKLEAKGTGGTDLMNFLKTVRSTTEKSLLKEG
Sequence of Human TDO (hTDO)-transfected CHO-K1 cells (P48775 whole entry): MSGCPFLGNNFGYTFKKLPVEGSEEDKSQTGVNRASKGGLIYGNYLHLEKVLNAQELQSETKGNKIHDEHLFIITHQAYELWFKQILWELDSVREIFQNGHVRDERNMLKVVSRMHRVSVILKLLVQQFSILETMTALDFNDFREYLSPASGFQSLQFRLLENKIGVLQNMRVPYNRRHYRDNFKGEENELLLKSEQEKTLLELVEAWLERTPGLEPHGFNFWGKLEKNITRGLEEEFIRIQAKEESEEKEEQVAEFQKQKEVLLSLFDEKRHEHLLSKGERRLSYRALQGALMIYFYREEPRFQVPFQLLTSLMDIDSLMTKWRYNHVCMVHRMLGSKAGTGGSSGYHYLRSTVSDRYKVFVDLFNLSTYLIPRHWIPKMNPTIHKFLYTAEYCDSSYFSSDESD

On to `Nc1oc2cnccc2c1Nc1ccc(F)c(Cl)c1` [Compound 2, N^3-(3-Chloro-4-fluoro-phenyl)-furo[2,3-c]pyridine-2,3-diamine], for which, in the experiment on CT-26 tumor cells (40 mg/kg oral BID, over 14 days, vs vehicle), the tumor growth entry is listed as “significantly decreased tumor growth”. Also, the IC50 (as a rule, the point on the concentration scale where inhibition reaches its midpoint) in experiment [1] was 0.5 to 2 µM; against IDO1 in HeLa cells it was below 0.2 µM.

On to `Nc1oc2c(-c3ccncc3)nccc2c1Nc1ccc(F)c(Cl)c1` [Compound 97, N^3-(3-Chloro-4-fluorophenyl)-7-(pyridin-4-yl)furo[2,3-c]pyridine-2,3-diamine], for which, in the experiment on CT-26 tumor cells (75 mg/kg oral BID), the “reduction of tumor growth” value was 26%-38. For the same compound, the half-maximal inhibitory concentration (IC50) in experiment [1] is below 0.5 µM; on IDO1 in HeLa cells it was below 0.2 µM.

In the case of `Nc1oc2c(-c3ccncc3)nccc2c1Nc1ccc(F)c(F)c1` [Compound 184, N^3-(3,4-difluorophenyl)-7-(pyridin-4-yl)furo[2,3-c]pyridine-2,3-diamine], the “reduction of tumor growth” value in the experiment on CT-26 tumor cells (50 mg/kg oral BID) is given as 26%-38. The concentration for half-maximal inhibition (IC50) is below 0.5 µM in experiment [1] and below 0.2 µM against IDO1 in HeLa cells.
